{"source": "ChEMBL document CHEMBL4304799", "about": "“Primaquine homodimers as potential antiplasmodial and anticancer agents” (Bioorg Med Chem Lett, 2019)", "key": {"[1]": {"system": "HCT-116", "assay": "Antiproliferative activity against human HCT116 cells measured after 72 hrs by MTT assay", "format": "functional, cell-based", "settings": "HCT-116, 72 h"}, "[2]": {"system": "MCF7", "assay": "Antiproliferative activity against human MCF7 cells measured after 72 hrs by MTT assay", "format": "functional, cell-based", "settings": "MCF7, 72 h"}, "[3]": {"system": "HEK293", "assay": "Antiproliferative activity against human HEK293 cells measured after 72 hrs by MTT assay", "format": "cell-based", "settings": "HEK293, 72 h"}, "[4]": {"system": "NCI-H460", "assay": "Antiproliferative activity against human H460 cells measured after 72 hrs by MTT assay", "format": "functional, cell-based", "settings": "NCI-H460, 72 h"}, "[5]": {"system": "Plasmodium falciparum", "assay": "Antiplasmodial activity against asexual chloroquine sensitive blood stage Plasmodium falciparum 3D7 measured as HRP2 levels after 3 days by ELISA", "format": "functional, organism-based", "settings": "3D7, 72 h"}, "[6]": {"system": "Plasmodium berghei", "assay": "Antiplasmodial activity against liver stage luciferase expressing Plasmodium berghei sporozoites infected in human Huh7 cells preincubated with host cells for 1 hr followed by plasmodium infection at 1 and 10 uM", "format": "functional, organism-based"}, "[7]": {"system": "Plasmodium falciparum", "assay": "Antiplasmodial activity against asexual chloroquine resistant blood stage Plasmodium falciparum Dd2 measured as HRP2 levels after 3 days by ELISA", "format": "functional, organism-based", "settings": "Dd2, 72 h"}, "[8]": {"system": "Plasmodium berghei", "assay": "Antiplasmodial activity against liver stage luciferase expressing Plasmodium berghei sporozoites infected in human Huh7 cells preincubated with host cells for 1 hr followed by plasmodium infection", "format": "functional, organism-based", "settings": "Huh-7"}, "[9]": {"assay": "Selectivity index, ratio of IC50 for HEK293 cells to IC50 for human H460 cells", "format": "toxicity", "settings": "HEK293 cells versus H460 cells, read-out: Ratio IC50"}, "[10]": {"assay": "Selectivity index, ratio of IC50 for HEK293 cells to IC50 for human MCF7 cells", "format": "toxicity", "settings": "HEK293 cells versus MCF7 cells, read-out: Ratio IC50"}, "[11]": {"assay": "Selectivity index, ratio of IC50 for HEK293 cells to IC50 for human HCT116 cells", "format": "toxicity", "settings": "HEK293 cells versus HCT116 cells, read-out: Ratio IC50"}}, "note": "Calls of active or inactive are those of the source. No cut-off for these calls is given here."}
{"compound": "COc1cc(NC(C)CCCNC(=O)/C=C(\\C)C(=O)NCCCC(C)Nc2cc(OC)cc3cccnc23)c2ncccc2c1", "note": "(centres undefined)", "values": [{"measurement": "IC50", "setting": "[1]", "value": 4.31, "unit": "µM"}, {"measurement": "IC50", "setting": "[2]", "value": 2.36, "unit": "µM"}, {"measurement": "IC50", "setting": "[3]", "value": 10, "unit": "µM"}, {"measurement": "IC50", "setting": "[4]", "value": 1.63, "unit": "µM"}]}
{"compound": "COc1cc(NC(C)CCCNC(=O)CCC(=O)NCCCC(C)Nc2cc(OC)cc3cccnc23)c2ncccc2c1", "note": "(centres undefined)", "values": [{"measurement": "IC50", "setting": "[1]", "value": 11.3, "unit": "µM"}, {"measurement": "IC50", "setting": "[5]", "value": 17.2, "unit": "µM"}, {"measurement": "IC50", "setting": "[2]", "value": 2.82, "unit": "µM"}, {"measurement": "IC50", "setting": "[3]", "value": 2.25, "unit": "µM"}, {"measurement": "IC50", "setting": "[4]", "value": 18.5, "unit": "µM"}, {"measurement": "Activity", "setting": "[6]", "value": "Active"}, {"measurement": "IC50", "setting": "[7]", "value": "> 27.7", "unit": "µM"}, {"measurement": "IC50", "setting": "[8]", "value": 0.726, "unit": "µM"}]}
{"compound": "COc1cc(NC(C)CCCNC(=O)CCCCC(=O)NCCCC(C)Nc2cc(OC)cc3cccnc23)c2ncccc2c1", "note": "(centres undefined)", "values": [{"measurement": "IC50", "setting": "[1]", "value": 13.7, "unit": "µM"}, {"measurement": "IC50", "setting": "[5]", "value": "> 27.7", "unit": "µM"}, {"measurement": "selectivity ratio", "setting": "[9]", "value": "7.3 to 56"}, {"measurement": "selectivity ratio", "setting": "[10]", "value": "7.3 to 56"}, {"measurement": "IC50", "setting": "[2]", "value": 1.78, "unit": "µM"}, {"measurement": "selectivity ratio", "setting": "[11]", "value": "7.3 to 56"}, {"measurement": "IC50", "setting": "[3]", "value": "≥ 100", "unit": "µM"}, {"measurement": "IC50", "setting": "[4]", "value": 2.49, "unit": "µM"}, {"measurement": "Activity", "setting": "[6]", "value": "Active"}, {"measurement": "IC50", "setting": "[7]", "value": "> 27.7", "unit": "µM"}]}
{"compound": "COc1cc(NC(C)CCCNC(=O)/C=C/C(=O)NCCCC(C)Nc2cc(OC)cc3cccnc23)c2ncccc2c1", "note": "(centres undefined)", "values": [{"measurement": "IC50", "setting": "[1]", "value": "≥ 100", "unit": "µM"}, {"measurement": "IC50", "setting": "[5]", "value": 14.6, "unit": "µM"}, {"measurement": "IC50", "setting": "[2]", "value": 9.3, "unit": "µM"}, {"measurement": "IC50", "setting": "[3]", "value": "≥ 100", "unit": "µM"}, {"measurement": "IC50", "setting": "[4]", "value": "≥ 100", "unit": "µM"}, {"measurement": "Activity", "setting": "[6]", "value": "Active"}, {"measurement": "IC50", "setting": "[7]", "value": "> 27.7", "unit": "µM"}, {"measurement": "IC50", "setting": "[8]", "value": 0.198, "unit": "µM"}]}
{"compound": "COc1cc(NC(C)CCCNC(=O)CCCCCC(=O)NCCCC(C)Nc2cc(OC)cc3cccnc23)c2ncccc2c1", "note": "(centres undefined)", "values": [{"measurement": "IC50", "setting": "[1]", "value": 26.1, "unit": "µM"}, {"measurement": "selectivity ratio", "setting": "[9]", "value": "1.6 to 31"}, {"measurement": "selectivity ratio", "setting": "[10]", "value": "1.6 to 31"}, {"measurement": "IC50", "setting": "[2]", "value": 3.04, "unit": "µM"}, {"measurement": "selectivity ratio", "setting": "[11]", "value": "1.6 to 31"}, {"measurement": "IC50", "setting": "[3]", "value": 94.9, "unit": "µM"}, {"measurement": "IC50", "setting": "[4]", "value": 26.7, "unit": "µM"}]}
{"compound": "COc1cc(NC(C)CCCNC(=O)CCCCCCC(=O)NCCCC(C)Nc2cc(OC)cc3cccnc23)c2ncccc2c1", "note": "(centres undefined)", "values": [{"measurement": "IC50", "setting": "[1]", "value": "≥ 100", "unit": "µM"}, {"measurement": "IC50", "setting": "[5]", "value": 23.1, "unit": "µM"}, {"measurement": "IC50", "setting": "[2]", "value": 1.85, "unit": "µM"}, {"measurement": "IC50", "setting": "[3]", "value": "≥ 100", "unit": "µM"}, {"measurement": "IC50", "setting": "[4]", "value": "≥ 100", "unit": "µM"}, {"measurement": "Activity", "setting": "[6]", "value": "Active"}, {"measurement": "IC50", "setting": "[7]", "value": 12.7, "unit": "µM"}]}
{"compound": "COc1cc(NC(C)CCCN)c2ncccc2c1", "note": "(centres undefined) [PRIMAQUINE PHOSPHATE]", "values": [{"measurement": "IC50", "setting": "[1]", "value": 14, "unit": "µM"}, {"measurement": "IC50", "setting": "[5]", "value": 1.3, "unit": "µM"}, {"measurement": "IC50", "setting": "[2]", "value": 8.73, "unit": "µM"}, {"measurement": "IC50", "setting": "[3]", "value": 11, "unit": "µM"}, {"measurement": "IC50", "setting": "[4]", "value": 19.8, "unit": "µM"}, {"measurement": "Activity", "setting": "[6]", "value": "Active"}, {"measurement": "IC50", "setting": "[7]", "value": 1.9, "unit": "µM"}]}
{"compound": "COc1cc(NC(C)CCCNC(=O)CCCC(=O)NCCCC(C)Nc2cc(OC)cc3cccnc23)c2ncccc2c1", "note": "(centres undefined)", "values": [{"measurement": "IC50", "setting": "[1]", "value": 16.9, "unit": "µM"}, {"measurement": "IC50", "setting": "[5]", "value": 16.5, "unit": "µM"}, {"measurement": "selectivity ratio", "setting": "[9]", "value": "1.6 to 31"}, {"measurement": "selectivity ratio", "setting": "[10]", "value": "1.6 to 31"}, {"measurement": "IC50", "setting": "[2]", "value": 3.37, "unit": "µM"}, {"measurement": "selectivity ratio", "setting": "[11]", "value": "1.6 to 31"}, {"measurement": "IC50", "setting": "[3]", "value": 26.4, "unit": "µM"}, {"measurement": "IC50", "setting": "[4]", "value": 10.3, "unit": "µM"}, {"measurement": "Activity", "setting": "[6]", "value": "Active"}, {"measurement": "IC50", "setting": "[7]", "value": "> 27.7", "unit": "µM"}]}
{"compound": "COc1cc(NC(C)CCCNC(=O)/C=C\\C(=O)NCCCC(C)Nc2cc(OC)cc3cccnc23)c2ncccc2c1", "note": "(centres undefined)", "values": [{"measurement": "IC50", "setting": "[1]", "value": 9.19, "unit": "µM"}, {"measurement": "selectivity ratio", "setting": "[9]", "value": "1.6 to 31"}, {"measurement": "selectivity ratio", "setting": "[10]", "value": "1.6 to 31"}, {"measurement": "IC50", "setting": "[2]", "value": 3.14, "unit": "µM"}, {"measurement": "selectivity ratio", "setting": "[11]", "value": "1.6 to 31"}, {"measurement": "IC50", "setting": "[3]", "value": 17.5, "unit": "µM"}, {"measurement": "IC50", "setting": "[4]", "value": 14.1, "unit": "µM"}, {"measurement": "Activity", "setting": "[6]", "value": "Active"}, {"measurement": "IC50", "setting": "[8]", "value": 0.358, "unit": "µM"}]}
{"compound": "COc1cccc2c1C(=O)c1c(O)c3c(c(O)c1C2=O)C[C@@](O)(C(=O)CO)C[C@@H]3O[C@H]1C[C@H](N)[C@H](O)[C@H](C)O1", "note": "[DOXORUBICIN]", "values": [{"measurement": "IC50", "setting": "[1]", "value": 0.01, "unit": "µM"}, {"measurement": "IC50", "setting": "[2]", "value": 0.01, "unit": "µM"}, {"measurement": "IC50", "setting": "[3]", "value": 0.018, "unit": "µM"}, {"measurement": "IC50", "setting": "[4]", "value": 0.003, "unit": "µM"}]}
